Test results as given in PMC10590383, “Repurposing conformational changes in ANL superfamily enzymes to rapidly generate biosensors for organic and amino acids” (Nature Communications, 2023).

Tests used:
[1] = Dependence of […]s on Mg2+ and ATP (fluorescence intensity); format: biochemical; conditions: ATP +
Excerpt: Ligand specificity is an important biosensors feature. Generally, the NRPS A domains have high specificity for their substrates because they are the first “gatekeeper” of NRPSs and ensure that the correct monomers are activated and thioesterified[32],[33]. […] Twenty proteinogenic amino acids were used to test the ligand specificity of […]s. […] We also investigated the dependence of […]s on Mg^2+ and ATP (Supplementary Fig. 4).
Supplementary Fig. 4 Dependence of GEC FINDER s on Mg2+ and ATP . a-j, Fluore scence intensities of
GECF IN DERs in the absence of any substra te, in the pre sence of Mg2+ alone, ATP alone, both Mg2+ and ATP, Mg2+
and ATP with re spective substra tes. Mg2+ concentra tion was 2.5 mM, and ATP concentra tion was 1 mM. a, 100 μM
data are provided as a Source Data file.

GECFINDER-4CA = biological target: T1, GECFINDER-4CA (Nicotiana tabacum, UniProt O24146); experiment: Fluorescence dose-response of purified cpEGFP sensors (0.75 uM) in 100 mM Tris-HCl pH 7.5, room temperature, 1 mM ATP, 2.5 mM MgCl2; excitation 400, 460 or 480 nm by sensor, emission 510 nm; logistic five-parameter fit.; format: biochemical; conditions: n = 3
T1 construct: gene 4CL2; cpEGFP with fixed linkers (LE-cpEGFP-TR) inserted between Leu439 and Ile440 in hinge A of Nt4CL2
T1 sequence (O24146 2-542): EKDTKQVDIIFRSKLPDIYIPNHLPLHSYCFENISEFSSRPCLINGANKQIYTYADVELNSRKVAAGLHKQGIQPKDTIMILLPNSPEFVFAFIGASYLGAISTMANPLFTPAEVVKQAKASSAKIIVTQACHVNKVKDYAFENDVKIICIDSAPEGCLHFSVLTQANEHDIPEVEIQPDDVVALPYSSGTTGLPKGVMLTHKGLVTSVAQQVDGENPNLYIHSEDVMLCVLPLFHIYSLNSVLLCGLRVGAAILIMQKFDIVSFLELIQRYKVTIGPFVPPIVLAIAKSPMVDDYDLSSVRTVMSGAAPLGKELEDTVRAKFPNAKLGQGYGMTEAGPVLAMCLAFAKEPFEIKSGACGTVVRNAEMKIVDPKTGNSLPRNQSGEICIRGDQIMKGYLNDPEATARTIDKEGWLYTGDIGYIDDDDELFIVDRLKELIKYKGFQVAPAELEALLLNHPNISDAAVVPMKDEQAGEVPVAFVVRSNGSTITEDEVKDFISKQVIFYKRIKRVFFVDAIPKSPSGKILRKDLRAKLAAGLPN
Description: (§1) Fig. 3 Dose–response curves and fluorescence spectrums of […]s. a, c, e, g, i, k Dose–response curve of purified […]s with increasing concentrations of ligand in 100 mM Tris-HCl buffer (pH=7.5). The normalized ΔF/F0 value increased after ligand binding. All data shown are mean ± S.D. (n = 3 biologically independent samples). b, d, f, h, j, l The fluorescence spectra of […]s changed as the ligand concentration increased. All data shown are mean ± S.D. (n = 3 biologically independent samples). Source data are provided as a Source data file.
(§2) The study conducted dose–response curve, substrate specificity, and fluorescent spectrum analyses in 100-mM Tris buffer (pH = 7.5), while pH stability experiments were performed in 100-mM Tris buffer at three different pH values (6.5, 7.5, and 8.5) at room temperature. […] protein at a concentration of 0.75 μM, various small molecule concentrations, 1 mM ATP, and 2.5 mM MgCl2 were used in the experiments. Fluorescent signals were detected using a Microplate Reader (Synergy H4, Bio Tek) at an excitation/emission wavelength of 460 nm/510 nm or 480 nm/510 nm. The dose-response curve was determined immediately after the addition of the analyte. The total duration of the measurement was 15 min, with readings taken at one-minute intervals. The dose-response curve was plotted using the fluorescence values obtained after achieving stability in the fluorescence signal. The dose-response curves were fitted using the logistic model LOGISTIC5 available in Origin 2021, which could provide a more adequate fit to asymmetric dose-response data[62],[63]. Excitation spectra were scanned from 300 to 540 nm with a step size of 5 nm, and the emission wavelength was set to 560 nm. Emission spectra were scanned from 470 to 700 nm with a step size of 5 nm, and the excitation wavelength was set to 450 nm. The thermal stability of […] was analyzed using the UNcle multifunctional protein stability analysis system. Measurements were performed in 20 mM MOPS buffer with 2 mM DTT at a sample concentration of 1 mg/mL. Absolute fluorescence quantum yields were measured using an absolute photoluminescence quantum yield spectrometer (FS5, Edinburgh).

[2] = Fluorescence spectra / excitation wavelength scan of […]s; format: physicochemical; conditions: Wavelength 300 nm
Description: (§3) Fig. 3 Dose–response curves and fluorescence spectrums of […]s. a, c, e, g, i, k Dose–response curve of purified […]s with increasing concentrations of ligand in 100 mM Tris-HCl buffer (pH=7.5). […] All data shown are mean ± S.D. (n = 3 biologically independent samples). Source data are provided as a Source data file.
as §2

[3] = Dose–response curve of purified […] with 4-coumaric acid; format: biochemical
Description: as §3
The study conducted dose–response curve, substrate specificity, and fluorescent spectrum analyses in 100-mM Tris buffer (pH = 7.5), while pH stability experiments were performed in 100-mM Tris buffer at three different pH values (6.5, 7.5, and 8.5) at room temperature. […] Fluorescent signals were detected using a Microplate Reader (Synergy H4, Bio Tek) at an excitation/emission wavelength of 460 nm/510 nm or 480 nm/510 nm. The dose-response curve was determined immediately after the addition of the analyte. The total duration of the measurement was 15 min, with readings taken at one-minute intervals. The dose-response curve was plotted using the fluorescence values obtained after achieving stability in the fluorescence signal. […] Excitation spectra were scanned from 300 to 540 nm with a step size of 5 nm, and the emission wavelength was set to 560 nm. Emission spectra were scanned from 470 to 700 nm with a step size of 5 nm, and the excitation wavelength was set to 450 nm. The thermal stability of […] was analyzed using the UNcle multifunctional protein stability analysis system. Measurements were performed in 20 mM MOPS buffer with 2 mM DTT at a sample concentration of 1 mg/mL. Absolute fluorescence quantum yields were measured using an absolute photoluminescence quantum yield spectrometer (FS5, Edinburgh).

At4CL2 = conditions: ATP Km of At4CL2, homolog of Nt4CL2; cited from earlier work
GrsA-Phe A domain = conditions: Km for ATP of GrsA-Phe A domain; cited from earlier work
GECFINDER-ATP = biological target: T2, GECFINDER-ATP (Bacillus subtilis, UniProt P39845); experiment: Fluorescence dose-response of purified […]-ATP with ATP as the varied ligand (10 nM to 2 mM), 100 mM Tris pH 7.5, room temperature, excitation/emission 480/510 nm.; format: biochemical; conditions: n = 3
T2 construct: gene ppsA; PpsA-GluA A domain; LE-cpEGFP-TR inserted between Asp425 and Asp426 in hinge A
T2 sequence (P39845 434-960): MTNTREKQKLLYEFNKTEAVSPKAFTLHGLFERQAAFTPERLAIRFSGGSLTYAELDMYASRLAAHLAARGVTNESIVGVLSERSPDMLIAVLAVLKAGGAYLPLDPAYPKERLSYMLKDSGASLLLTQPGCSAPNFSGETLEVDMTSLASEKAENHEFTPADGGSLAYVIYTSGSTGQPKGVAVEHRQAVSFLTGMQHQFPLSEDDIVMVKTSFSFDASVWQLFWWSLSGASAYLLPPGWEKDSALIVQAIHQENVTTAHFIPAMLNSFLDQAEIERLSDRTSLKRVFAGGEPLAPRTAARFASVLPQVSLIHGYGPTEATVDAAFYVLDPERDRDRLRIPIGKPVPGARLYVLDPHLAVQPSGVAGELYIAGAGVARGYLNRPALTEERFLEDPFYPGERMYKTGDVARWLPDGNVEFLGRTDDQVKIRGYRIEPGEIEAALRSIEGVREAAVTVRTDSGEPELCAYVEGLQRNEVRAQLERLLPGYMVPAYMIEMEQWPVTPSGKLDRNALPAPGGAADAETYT
Description: as §2, with “Excitation spectra were scanned from 300 to 540 nm with a step size of 5 nm, and the emission wavelength was set to 560 nm. Emission spectra were scanned from 470 to 700 nm with a step size of 5 nm, and the excitation wavelength was set to 450 nm.” left out, “Measurements were performed in 20 mM MOPS buffer with 2 mM DTT at a sample concentration of 1 mg/mL.” left out, “Edinburgh). […]” for “Edinburgh).”

GECFINDER-His1 = biological target: T3, GECFINDER-His1 (Bacillus licheniformis, UniProt O68008); experiment: Fluorescence dose-response of purified cpEGFP sensors (0.75 uM) in 100 mM Tris-HCl pH 7.5, room temperature, 1 mM ATP, 2.5 mM MgCl2; excitation 400, 460 or 480 nm by sensor, emission 510 nm; logistic five-parameter fit.; format: biochemical; conditions: n = 3
T3 construct: gene bacC; BacC-HisA-PCP; cpEGFP inserted, linkers GA-HC
T3 sequence (O68008 2956-3585): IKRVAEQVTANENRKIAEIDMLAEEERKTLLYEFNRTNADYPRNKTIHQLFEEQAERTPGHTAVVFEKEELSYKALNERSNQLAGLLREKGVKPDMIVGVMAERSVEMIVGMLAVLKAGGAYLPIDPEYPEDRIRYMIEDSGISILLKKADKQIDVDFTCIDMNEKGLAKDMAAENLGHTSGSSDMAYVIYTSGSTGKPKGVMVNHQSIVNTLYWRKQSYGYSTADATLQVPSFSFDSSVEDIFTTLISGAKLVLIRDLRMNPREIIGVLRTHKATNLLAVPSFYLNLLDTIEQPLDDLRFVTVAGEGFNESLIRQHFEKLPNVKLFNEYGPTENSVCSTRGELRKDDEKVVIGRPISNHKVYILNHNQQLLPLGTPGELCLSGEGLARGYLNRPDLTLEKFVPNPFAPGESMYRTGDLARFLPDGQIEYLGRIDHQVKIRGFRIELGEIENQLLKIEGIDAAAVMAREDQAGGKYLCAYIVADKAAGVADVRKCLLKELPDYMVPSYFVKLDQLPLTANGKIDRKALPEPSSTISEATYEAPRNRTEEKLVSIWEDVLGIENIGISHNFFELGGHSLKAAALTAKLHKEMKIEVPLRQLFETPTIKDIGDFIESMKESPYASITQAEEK
Description: as §1, §2

GECFINDER-His2 = biological target: T4, GECFINDER-His2 (Bacillus licheniformis, UniProt O68008); experiment: as above; format: biochemical; conditions: n = 3
T4 construct: gene bacC; BacC-HisA-PCP; cpEGFP inserted, linkers GG-PV
T4 sequence (O68008 2956-3585): as above
Description: as §1, §2

GECFINDER-Ile2 = biological target: T5, GECFINDER-Ile2 (Bacillus licheniformis, UniProt O68006); experiment: as above; format: biochemical; conditions: n = 3
T5 construct: gene bacA; BacA-IleA-PCP; cpEGFP inserted, linkers RY-PG
T5 sequence (O68006 1-632 N218D): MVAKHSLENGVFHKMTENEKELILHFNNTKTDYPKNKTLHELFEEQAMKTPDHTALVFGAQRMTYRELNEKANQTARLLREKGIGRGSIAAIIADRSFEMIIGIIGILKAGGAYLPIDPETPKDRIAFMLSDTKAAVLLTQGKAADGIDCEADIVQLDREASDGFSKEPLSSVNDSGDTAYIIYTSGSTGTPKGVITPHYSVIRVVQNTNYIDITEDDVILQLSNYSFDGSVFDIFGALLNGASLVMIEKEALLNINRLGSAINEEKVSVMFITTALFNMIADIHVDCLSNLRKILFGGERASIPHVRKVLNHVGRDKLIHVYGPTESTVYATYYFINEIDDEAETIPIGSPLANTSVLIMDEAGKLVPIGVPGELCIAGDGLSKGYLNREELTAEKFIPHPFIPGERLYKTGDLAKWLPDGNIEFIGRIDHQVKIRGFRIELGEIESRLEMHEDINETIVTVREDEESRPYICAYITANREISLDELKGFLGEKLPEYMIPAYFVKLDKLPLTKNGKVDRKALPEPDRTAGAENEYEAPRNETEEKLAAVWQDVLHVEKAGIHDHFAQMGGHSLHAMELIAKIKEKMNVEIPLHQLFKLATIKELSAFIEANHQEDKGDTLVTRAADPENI
Description: as §1, §2

GECFINDER-Ile3 = biological target: T6, GECFINDER-Ile3 (Bacillus licheniformis, UniProt O68006); experiment: as above; format: biochemical; conditions: n = 3
T6 construct: gene bacA; BacA-IleA-PCP; cpEGFP inserted, linkers VY-LS
T6 sequence (O68006 1-632 N218D): as above
Description: as §1, §2

GECFINDER-Ile1 = biological target: T7, GECFINDER-Ile1 (Bacillus licheniformis, UniProt O68006); experiment: as above; format: biochemical; conditions: n = 3
T7 construct: gene bacA; BacA-IleA-PCP; cpEGFP inserted, linkers VY-CA
T7 sequence (O68006 1-632 N218D): as above
Description: as §1, §2

## O=C(O)/C=C/c1ccc(O)cc1 [4-coumaric acid]
[1]; Supplementary Fig. 4 a, Mg+ +, 4-coumaric acid +
  fluorescence intensity, AVE of 3 repeats: 3682.33
GECFINDER-4CA
  EC50: 1.03 ± 0.06 µM
[2]; 0.001 μM 4-coumaric acid
  Wavelength scan, AVE of Repeat 1-3 (Fig. 3 b): 368
[2]; 2.5 μM 4-coumaric acid
  Wavelength scan, AVE of Repeat 1-3 (Fig. 3 b): 388.333
[2]; 250 μM 4-coumaric acid
  Wavelength scan, AVE of Repeat 1-3 (Fig. 3 b): 108.667
[3]; 4-coumaric acid 0.001 μM
  Dose-response, AVE of Repeat 1-3 (Fig. 3 a): 0
[3]; 4-coumaric acid 0.01 μM
  Dose-response, AVE of Repeat 1-3 (Fig. 3 a): 0.02925
[3]; 4-coumaric acid 0.25 μM
  Dose-response, AVE of Repeat 1-3 (Fig. 3 a): 0.1354
[3]; 4-coumaric acid 0.5 μM
  Dose-response, AVE of Repeat 1-3 (Fig. 3 a): 0.2537
[3]; 4-coumaric acid 2.5 μM
  Dose-response, AVE of Repeat 1-3 (Fig. 3 a): 0.5733
[3]; 4-coumaric acid 5 μM
  Dose-response, AVE of Repeat 1-3 (Fig. 3 a): 0.6689
[3]; 4-coumaric acid 25 μM
  Dose-response, AVE of Repeat 1-3 (Fig. 3 a): 0.7533
[3]; 4-coumaric acid 50 μM
  Dose-response, AVE of Repeat 1-3 (Fig. 3 a): 0.7561
[3]; 4-coumaric acid 250 μM
  Dose-response, AVE of Repeat 1-3 (Fig. 3 a): 0.7978
[3]; 4-coumaric acid 500 μM
  Dose-response, AVE of Repeat 1-3 (Fig. 3 a): 0.7717
[3]; 4-coumaric acid 2500 μM
  Dose-response, AVE of Repeat 1-3 (Fig. 3 a): 0.8533
[3]; 4-coumaric acid 5000 μM
  Dose-response, AVE of Repeat 1-3 (Fig. 3 a): 0.8286

## Nc1ncnc2c1ncn2[C@@H]1O[C@H](COP(=O)(O)OP(=O)(O)OP(=O)(O)O)[C@@H](O)[C@H]1O [ATP, adenosine triphosphate]
[1]; Supplementary Fig. 4 a, Mg+ +, 4-coumaric acid -
  fluorescence intensity, AVE of 3 repeats: 2171.67
[1]; Supplementary Fig. 4 a, Mg+ -, 4-coumaric acid -
  fluorescence intensity, AVE of 3 repeats: 2266.67
[1]; Supplementary Fig. 4 b, Mg+ +, phenylalanine -
  fluorescence intensity, AVE of 3 repeats: 9194
[1]; Supplementary Fig. 4 b, Mg+ -, phenylalanine -
  fluorescence intensity, AVE of 3 repeats: 7173.67
[1]; Supplementary Fig. 4 c, Mg+ +, glutamine -
  fluorescence intensity, AVE of 3 repeats: 17330.3
[1]; Supplementary Fig. 4 c, Mg+ -, glutamine -
  fluorescence intensity, AVE of 3 repeats: 17083
[1]; Supplementary Fig. 4 e, Mg+ +, isoleucine -
  fluorescence intensity, AVE of 3 repeats: 12985
[1]; Supplementary Fig. 4 e, Mg+ -, isoleucine -
  fluorescence intensity, AVE of 3 repeats: 12174.7
[1]; Supplementary Fig. 4 f, Mg+ +, histidine -
  fluorescence intensity, AVE of 3 repeats: 25974
[1]; Supplementary Fig. 4 f, Mg+ -, histidine -
  fluorescence intensity, AVE of 3 repeats: 26138.3
[1]; Supplementary Fig. 4 g, Mg+ +, leucine -
  fluorescence intensity, AVE of 3 repeats: 7346.67
[1]; Supplementary Fig. 4 g, Mg+ -, leucine -
  fluorescence intensity, AVE of 3 repeats: 6910.33
[1]; Supplementary Fig. 4 i, Mg+ +, tyrosine -
  fluorescence intensity, AVE of 3 repeats: 5938.67
[1]; Supplementary Fig. 4 i, Mg+ -, tyrosine -
  fluorescence intensity, AVE of 3 repeats: 5712
[1]; Supplementary Fig. 4 j, Mg+ +, phenylalanine -
  fluorescence intensity, AVE of 3 repeats: 7465
[1]; Supplementary Fig. 4 j, Mg+ -, phenylalanine -
  fluorescence intensity, AVE of 3 repeats: 7633
[1]; Supplementary Fig. 4 h, Mg+ +, S-β-phenylalanine -
  fluorescence intensity, AVE of 3 repeats: 5374.33
[1]; Supplementary Fig. 4 h, Mg+ -, S-β-phenylalanine -
  fluorescence intensity, AVE of 3 repeats: 5014
[1]; Supplementary Fig. 4 d, Mg+ +, proline -
  fluorescence intensity, AVE of 3 repeats: 50889
[1]; Supplementary Fig. 4 d, Mg+ -, proline -
  fluorescence intensity, AVE of 3 repeats: 46119
At4CL2
  Km: 163 µM
GrsA-Phe A domain
  Km: 150 µM
GECFINDER-ATP
  EC50: 69.3 ± 4.69 µM

## N[C@@H](Cc1c[nH]cn1)C(=O)O [His, histidine]
GECFINDER-His1
  EC50: 10.4 ± 4.74 µM
GECFINDER-His2
  EC50: 13.2 ± 4.26 µM

## CC[C@H](C)[C@H](N)C(=O)O [Ile, isoleucine]
GECFINDER-Ile2
  EC50: 221 ± 66.3 µM
GECFINDER-Ile3
  EC50: 186 ± 61 µM
GECFINDER-Ile1
  EC50: 161 ± 32.1 µM
